In US12247029B2, “Heterocyclic compounds as class II phosphoinositide 3-kinase inhibitors” (Forschungsverbund Berlin e.V., priority 2018, dated 2025):

Biological target: PI3KC2α Δ1-298 (Homo sapiens (Human), UniProt O00443)
Test: ADP-Glo kinase assay with purified PI3KC2α Δ1-298
Type: biochemical
Conditions: not given
Experimental: Previous studies have shown that PI3KC2α can utilize phosphatidylinositol (PI) or phosphatidylinositol 4-phosphate [PI(4)P] to produce PI(3)P or PI(3,4)P2 respectively but with a preference for PI(3,4)P2 production. To verify that purified PI3KC2α Δ1-298 is active, a radioactive kinase assay was performed with PI as a substrate and different amounts of purified PI3KC2α Δ1-298. The lipid product [PI(3)P] was separated on TLC plates, and the PI(3)P signal was correlated with the amount of PI3KC2α used (FIG. 4A). […] After having confirmed the activity of purified PI3KC2α Δ1-298, an assay suitable for high content screens in multiwell format (ADP-Glo™ assay) was established. The ADP-Glo™ assay has been used for universal detection of ATP hydrolysis. This assay measures ATP hydrolysis occurring during a kinase reaction. For detection, generated ADP is re-converted into ATP with the […] and converted into light by the Ultra-Glo™ Luciferase reagent. The luminescent signal reports kinase activity (FIG. 4B).
The ADP-Glo™ assay was first used to determine the linear correlation range of signal with different amounts of kinase, and then to assess the Kms for ATP and for PI. […] Further optimization of this assay allowed us to carry out medium-to-high throughput screening using low amounts of purified enzyme (at fixed concentrations of: ATP=40 μM, PI=200 μM, PI3KC2α A1−298=10 ng/μl).
Primary screens were performed using the ADP-Glo™ assay in a 384-well format. 37, 224 small molecules were screened for their ability to inhibit kinase activity of PI3KC2α Δ1-298. The concentration of each compound used in the primary screens was 10 μM. Kinase incubations with ATP but without PI were used as negative control samples. This primary screen turned out to be robust with an average z′ factor of 0.57, and therefore judged as successful.
ADP-Glo kinase assay was performed as described by the manufacturer's protocol. Briefly, the kinase assay was performed with a […] of liver PI/ATP/purified PI3KC2α for 20 min in kinase reaction buffer described above. To deplete the remaining ATP from the reaction, 5 μl of […] was added to the kinase reaction mixture and incubated for 40 min. For detection, the generated ADP is re-converted into ATP and converted into light by the Ultra-Glo™ luciferase in kinase detection reagent. The luminescent signal positively correlates with kinase activity. All reactions are performed in Corning® 384 well-white plates.

Sequence of PI3KC2α Δ1-298 (O00443 299-1686): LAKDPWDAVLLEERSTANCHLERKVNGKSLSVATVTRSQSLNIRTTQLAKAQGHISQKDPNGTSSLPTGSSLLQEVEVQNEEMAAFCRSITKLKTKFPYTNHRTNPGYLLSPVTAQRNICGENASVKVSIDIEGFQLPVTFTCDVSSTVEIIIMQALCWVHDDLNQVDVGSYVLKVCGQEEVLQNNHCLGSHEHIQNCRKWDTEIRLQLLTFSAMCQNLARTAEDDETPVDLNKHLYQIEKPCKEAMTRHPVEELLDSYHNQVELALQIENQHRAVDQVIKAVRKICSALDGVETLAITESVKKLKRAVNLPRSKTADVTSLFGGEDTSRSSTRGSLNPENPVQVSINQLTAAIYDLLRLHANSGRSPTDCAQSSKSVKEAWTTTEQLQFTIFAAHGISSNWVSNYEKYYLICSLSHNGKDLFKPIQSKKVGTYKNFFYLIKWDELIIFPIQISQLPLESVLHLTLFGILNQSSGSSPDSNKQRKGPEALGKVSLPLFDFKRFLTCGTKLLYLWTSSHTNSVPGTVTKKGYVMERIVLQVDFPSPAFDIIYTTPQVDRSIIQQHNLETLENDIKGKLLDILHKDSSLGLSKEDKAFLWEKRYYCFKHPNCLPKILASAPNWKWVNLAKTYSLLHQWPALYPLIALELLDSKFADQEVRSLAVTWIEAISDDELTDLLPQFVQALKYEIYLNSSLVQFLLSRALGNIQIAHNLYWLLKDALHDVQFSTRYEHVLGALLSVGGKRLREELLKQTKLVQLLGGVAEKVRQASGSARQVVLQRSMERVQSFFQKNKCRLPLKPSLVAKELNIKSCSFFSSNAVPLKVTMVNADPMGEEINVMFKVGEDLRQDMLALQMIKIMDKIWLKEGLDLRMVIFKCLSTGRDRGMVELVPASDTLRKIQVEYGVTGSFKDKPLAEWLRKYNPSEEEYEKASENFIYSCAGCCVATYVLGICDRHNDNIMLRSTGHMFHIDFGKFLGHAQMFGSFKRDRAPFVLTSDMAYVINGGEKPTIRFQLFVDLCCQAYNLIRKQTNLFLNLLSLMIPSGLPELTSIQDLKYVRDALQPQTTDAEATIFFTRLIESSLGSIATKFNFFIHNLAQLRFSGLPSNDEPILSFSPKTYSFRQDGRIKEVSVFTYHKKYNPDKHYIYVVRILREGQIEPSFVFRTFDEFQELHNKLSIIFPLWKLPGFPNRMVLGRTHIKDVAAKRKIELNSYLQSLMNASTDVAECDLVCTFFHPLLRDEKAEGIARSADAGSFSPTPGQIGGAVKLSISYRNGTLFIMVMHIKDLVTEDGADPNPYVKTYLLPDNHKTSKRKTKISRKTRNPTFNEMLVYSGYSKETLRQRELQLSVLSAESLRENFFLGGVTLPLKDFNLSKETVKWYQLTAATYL

PI3KC2α inhibitory activity (in words, SAR)	inhibition at 10 µM	Compound
did not disrupt the activity		CC(Sc1nc2nccnc2c(=O)n1CCc1cccc(F)c1)C(=O)Nc1nccs1 (stereo not shown) [Example Compound 16, 2-((3-(3-Fluorophenethyl)-4-oxo-3,4-dihydropteridin-2-yl)thio)-N-(thiazol-2-yl)propanamide]
	100%	O=C(CSc1nc2nccnc2c(=O)n1CCc1ccccc1)Nc1nc(-c2cccc([N+](=O)[O-])c2)cs1 [Example Compound 58, N-(4-(3-Nitrophenyl)thiazol-2-yl)-2-((4-oxo-3-phenethyl-3,4-dihydropteridin-2-yl)thio)acetamide]

Same assay, conditions: read-out: IC50 (PI3KC2α; ADP-Glo™ assay)

Compound	IC50
O=c1c2nccnc2nc(SCc2nc3ccccc3[nH]2)n1CCc1ccccc1 [Example Compound 65, 2-(((1H-Benzo[d]imidazol-2-yl)methyl)thio)-3-phenethylpteridin-4(3H)-one]	0.17 µM
O=c1c2nccnc2nc(SCc2nc3cccnc3[nH]2)n1CCc1ccccc1 [Example Compound 73, 2-(((3H-Imidazo[4,5-b]pyridin-2-yl)methyl)thio)-3-phenethylpteridin-4(3H)-one]	0.61 µM
O=C(CSc1nc2nccnc2c(=O)n1CCc1ccccc1)Nc1nc(-c2cccc(O)c2)cs1 [Example Compound 1, N-(4-(3-Hydroxyphenyl)thiazol-2-yl)-2-((4-oxo-3-phenethyl-3,4-dihydropteridin-2-yl)thio)acetamide]	0.12 µM
Cc1nnc(NS(=O)(=O)c2ccc(-n3c(SCC(=O)Nc4nccs4)nc4nccnc4c3=O)cc2)s1 [Example Compound 80, 2-((3-(4-(N-(5-Methyl-1,3,4-thiadiazol-2-yl)sulfamoyl)phenyl)-4-oxo-3,4-dihydropteridin-2-yl)thio)-N-(thiazol-2-yl)acetamide]	0.28 µM
O=C(CSc1nc2nccnc2c(=O)n1CCC1CCCCC1)Nc1nccs1 [Example Compound 44, 2-((3-(2-Cyclohexylethyl)-4-oxo-3,4-dihydropteridin-2-yl)thio)-N-(thiazol-2-yl)acetamide]	0.59 µM
Cn1c(=O)c2nc(CSc3nc4nccnc4c(=O)n3CCc3ccccc3)[nH]c2n(C)c1=O [Example Compound 68, 1,3-Dimethyl-8-(((4-oxo-3-phenethyl-3,4-dihydropteridin-2-yl)thio)methyl)-3,9-dihydro-1H-purine-2,6-dione]	1.4 µM
Cc1nc(CSc2nc3nccnc3c(=O)n2CCc2ccccc2)[nH]c1C [Example Compound 77, 2-(((4,5-Dimethyl-1H-imidazol-2-yl)methyl)thio)-3-phenethylpteridin-4(3H)-one]	23 µM
N#Cc1ccc(-n2c(SCc3nc4ccccc4[nH]3)nc3nccnc3c2=O)cc1 [Example Compound 86, 4-(2-(((1H-Benzo[d]imidazol-2-yl)methyl)thio)-4-oxopteridin-3(4H)-yl)benzonitrile]	1.1 µM
COC(=O)c1ccc2[nH]c(CSc3nc4nccnc4c(=O)n3CCc3ccccc3)nc2c1 [Example Compound 75, Methyl 2-(((4-oxo-3-phenethyl-3,4-dihydropteridin-2-yl)thio)methyl)-1H-benzo[d]imidazole-5-carboxylate]	2.6 µM
Nc1cccc(-c2csc(NC(=O)CSc3nc4nccnc4c(=O)n3CCc3ccccc3)n2)c1 [Example Compound 59, N-(4-(3-Aminophenyl)thiazol-2-yl)-2-((4-oxo-3-phenethyl-3,4-dihydropteridin-2-yl)thio)acetamide]	0.15 µM
N#Cc1ccc(-c2csc(NC(=O)CSc3nc4nccnc4c(=O)n3CCc3ccccc3)n2)cc1 [Example Compound 50, N-(4-(4-Cyanophenyl)thiazol-2-yl)-2-((4-oxo-3-phenethyl-3,4-dihydropteridin-2-yl)thio)acetamide]	2.9 µM
O=c1c2nccnc2nc(SCc2nc3ccccc3o2)n1CCc1ccccc1 [Example Compound 63, 2-((Benzo[d]oxazol-2-ylmethyl)thio)-3-phenethylpteridin-4(3H)-one]	5.7 µM

Other lines, results leading:

IC50	Compound
7.1 µM	O=C(CSc1nc2nccnc2c(=O)n1CCc1cccc(F)c1)NC1CC1 [Example Compound 7, N-Cyclopropyl-2-((3-(3-fluorophenethyl)-4-oxo-3,4-dihydropteridin-2-yl)thio)acetamide]
12 µM	O=C(CSc1nc2nccnc2c(=O)n1C1CC1c1ccccc1)Nc1nccs1 (stereo not shown) [Example Compound 21, 2-((4-Oxo-3-(2-phenylcyclopropyl)-3,4-dihydropteridin-2-yl)thio)-N-(thiazol-2-yl)acetamide]
35 µM	O=C(CSc1nc2nccnc2c(=O)n1CCc1ccccc1)Nc1ncc(Cl)s1 [Example Compound 45, N-(5-Chlorothiazol-2-yl)-2-((4-oxo-3-phenethyl-3,4-dihydropteridin-2-yl)thio)acetamide]
0.84 µM	O=C(CSc1nc2nccnc2c(=O)n1CCc1cccc(F)c1)Nc1nccs1 [Example Compound 4, 2-((3-(3-Fluorophenethyl)-4-oxo-3,4-dihydropteridin-2-yl)thio)-N-(thiazol-2-yl)acetamide]
1.8 µM	O=C(CSc1nc2nccnc2c(=O)n1Cc1ccco1)Nc1nccs1 [Example Compound 32, 2-((3-(Furan-2-ylmethyl)-4-oxo-3,4-dihydropteridin-2-yl)thio)-N-(thiazol-2-yl)acetamide]
23 µM	Cc1cnc2nc(SCC(=O)Nc3nccs3)n(CCc3ccccc3)c(=O)c2n1 [Example Compound 46, 2-((6-Methyl-4-oxo-3-phenethyl-3,4-dihydropteridin-2-yl)thio)-N-(thiazol-2-yl)acetamide]
2.8 µM	O=C(CSc1nc2nccnc2c(=O)n1CCc1ccccc1)Nc1ncco1 [Example Compound 14, N-(Oxazol-2-yl)-2-((4-oxo-3-phenethyl-3,4-dihydropteridin-2-yl)thio)acetamide]
5.2 µM	CC(Sc1nc2nccnc2c(=O)n1CCc1cccc(F)c1)C(=O)Nc1nccs1 (stereo not shown) [Example Compound 16, 2-((3-(3-Fluorophenethyl)-4-oxo-3,4-dihydropteridin-2-yl)thio)-N-(thiazol-2-yl)propanamide]
3.4 µM	O=C(CSc1nc2nccnc2c(=O)n1CCc1ccccc1)Nc1nc2c(F)cc(F)cc2s1 [Example Compound 57, N-(4,6-Difluorobenzo[d]thiazol-2-yl)-2-((4-oxo-3-phenethyl-3,4-dihydropteridin-2-yl)thio)acetamide]
0.17 µM	O=C(CSc1nc2nccnc2c(=O)n1C1Cc2ccccc2C1)Nc1nccs1 [Example Compound 87, 2-((3-(2,3-Dihydro-1H-inden-2-yl)-4-oxo-3,4-dihydropteridin-2-yl)thio)-N-(thiazol-2-yl)acetamide]
13 µM	O=C(CSc1nc2cccnc2c(=O)n1CCc1ccccc1)Nc1nccs1 [Example Compound 13, 2-((4-Oxo-3-phenethyl-3,4-dihydropyrido[3,2-d]pyrimidin-2-yl)thio)-N-(thiazol-2-yl)acetamide]
